Source: ChEMBL document CHEMBL1201862, “PubChem BioAssay data set” (2004)
Calls of active or inactive are those of the source.

Columns and labels:
[1] = target: COUP transcription factor 2 (Homo sapiens, UniProt P24468); experiment: Luminescence-based cell-based high throughput dose response assay to identify inhibitors of COUP-TFII (NR2F2).; assay type: functional;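 further: HEK293 cells transiently cotransfected with COUP-TFII expression vector and reporter; luciferase reporter luminescence driven by COUP-TFII from the pX2-168 reporter plasmid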
Chain of COUP transcription factor 2 (P24468 whole entry): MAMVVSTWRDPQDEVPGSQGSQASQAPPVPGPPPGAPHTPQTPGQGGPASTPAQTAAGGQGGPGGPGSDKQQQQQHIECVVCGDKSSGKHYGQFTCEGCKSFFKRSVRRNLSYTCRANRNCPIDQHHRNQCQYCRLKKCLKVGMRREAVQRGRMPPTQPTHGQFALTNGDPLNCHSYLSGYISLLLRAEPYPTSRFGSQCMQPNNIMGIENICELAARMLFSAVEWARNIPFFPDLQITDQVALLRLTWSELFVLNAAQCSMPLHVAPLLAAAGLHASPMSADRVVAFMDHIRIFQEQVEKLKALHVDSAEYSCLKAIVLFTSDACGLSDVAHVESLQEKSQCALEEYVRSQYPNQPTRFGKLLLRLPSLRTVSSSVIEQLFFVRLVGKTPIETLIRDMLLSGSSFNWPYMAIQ

Streptococcus = experiment: GAS UMAA2166 growth inhibition – luminescence, BacTiterGlo, counter-screen for streptokinase expression inhibitor project, dose response (AID 1915); assay type: functional, organism-based;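 further: potency for reduction of bacterial viability or growth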
[2] = system: Streptococcus sp. 'group A'; experiment: Streptococcus pyogenes SK(-)GAS viability under kanamycin – luminescence, BacTiterGlo, confirmation, counter-screen for streptokinase expression inhibitor project, dose response (AID 1900); assay type: functional, organism-based
[3] = target: T1, Probable nicotinate-nucleotide adenylyltransferase (Staphylococcus aureus (strain N315), UniProt P65502); assay type: functional, Staphylococcus aureus subsp. aureus N315;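 on IC50 Mean: confirmatory dose-response retesting of NadD inhibitor hits first found in an ultra-high-throughput screen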
T1 sequence (P65502 whole entry): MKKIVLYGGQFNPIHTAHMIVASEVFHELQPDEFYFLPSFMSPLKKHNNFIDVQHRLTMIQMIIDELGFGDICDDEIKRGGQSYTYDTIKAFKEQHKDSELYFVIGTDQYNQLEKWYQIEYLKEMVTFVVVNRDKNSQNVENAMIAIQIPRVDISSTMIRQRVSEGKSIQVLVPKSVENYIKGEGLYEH

[4] = NIH-3T3 fibroblast cytotoxicity, dose response, cytotoxicity control, cell-based, fluorescence, Alamar Blue, secondary assay (AID 2327); assay type: functional;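 further: NIH-3T3 mouse fibroblasts cultured with fluconazole at 8 µg/mL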
[5] = target: Disintegrin and metalloproteinase domain-containing protein 17 (Homo sapiens, UniProt P78536); experiment: inhibition of ADAM17 substrate cleavage – biochemical, quenched FRET substrate, counter-screen for ADAM10 exosite inhibitor project, dose response (AID 743253)
Chain of Disintegrin and metalloproteinase domain-containing protein 17 (P78536 whole entry, the tested form may be a part): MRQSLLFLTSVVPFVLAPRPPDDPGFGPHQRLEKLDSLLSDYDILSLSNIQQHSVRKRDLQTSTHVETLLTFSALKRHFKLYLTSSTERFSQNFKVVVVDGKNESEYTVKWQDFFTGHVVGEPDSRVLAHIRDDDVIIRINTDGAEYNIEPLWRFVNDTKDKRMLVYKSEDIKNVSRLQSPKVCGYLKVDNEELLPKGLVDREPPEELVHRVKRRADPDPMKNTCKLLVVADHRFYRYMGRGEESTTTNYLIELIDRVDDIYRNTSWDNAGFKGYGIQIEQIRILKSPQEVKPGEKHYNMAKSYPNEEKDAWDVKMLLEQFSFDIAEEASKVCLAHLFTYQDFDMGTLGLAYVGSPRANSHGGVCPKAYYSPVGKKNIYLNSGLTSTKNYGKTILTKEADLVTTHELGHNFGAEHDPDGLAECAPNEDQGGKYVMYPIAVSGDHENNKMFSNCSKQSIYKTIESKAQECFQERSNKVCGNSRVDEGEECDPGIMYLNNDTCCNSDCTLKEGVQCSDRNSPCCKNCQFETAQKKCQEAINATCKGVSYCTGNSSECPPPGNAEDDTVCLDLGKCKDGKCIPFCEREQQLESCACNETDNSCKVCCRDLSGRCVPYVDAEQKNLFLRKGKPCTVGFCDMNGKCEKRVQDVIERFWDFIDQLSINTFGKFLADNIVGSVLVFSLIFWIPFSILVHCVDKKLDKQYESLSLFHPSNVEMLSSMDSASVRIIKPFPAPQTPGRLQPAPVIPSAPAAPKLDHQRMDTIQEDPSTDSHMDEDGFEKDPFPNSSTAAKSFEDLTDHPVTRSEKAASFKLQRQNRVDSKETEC

[6] = target: T1, Probable nicotinate-nucleotide adenylyltransferase; assay type: functional, Staphylococcus aureus subsp. aureus N315; details: read-out: IC50_Mean
[7] = fluconazole-exposed Candida albicans growth modulators – fluorescence, retest, confirmation (AID 2467); assay type: functional, cell-based
Streptokinase A = target: T2, Streptokinase A (Streptococcus pyogenes serotype M1, UniProt P10520); experiment: viability-normalized secreted streptokinase activity reduction – plasminogen activation absorbance, OD405, dose response (AID 1914); assay type: functional, Streptococcus pyogenes M1 GAS;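 further: secreted streptokinase activity via plasminogen activation per viability signal from cell pellet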
T2 sequence (P10520 whole entry): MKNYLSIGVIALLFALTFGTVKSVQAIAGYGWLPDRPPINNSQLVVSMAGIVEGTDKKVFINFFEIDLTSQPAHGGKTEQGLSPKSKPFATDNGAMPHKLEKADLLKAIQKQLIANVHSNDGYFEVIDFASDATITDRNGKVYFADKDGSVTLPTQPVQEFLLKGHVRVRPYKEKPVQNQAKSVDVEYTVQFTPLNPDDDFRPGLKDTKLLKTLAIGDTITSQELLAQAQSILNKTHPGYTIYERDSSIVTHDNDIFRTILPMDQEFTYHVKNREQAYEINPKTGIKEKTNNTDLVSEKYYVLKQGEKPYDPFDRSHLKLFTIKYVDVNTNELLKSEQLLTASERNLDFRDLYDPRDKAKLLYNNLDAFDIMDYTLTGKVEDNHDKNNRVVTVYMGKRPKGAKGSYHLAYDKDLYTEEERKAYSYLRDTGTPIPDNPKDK

[8] = target: T3, Oxysterols receptor LXR-beta (Homo sapiens, UniProt P55055); assay type: functional, cell-based;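 further: agonist activity at LXR measured by a cell-based luminescence readout across a dose range, run as a counterscreen for daf-12 agonists; HEK293 cells with Gal4-LXR fusion and GAL4-driven luciferase reporter; potency for activation of Gal4-LXR reporter so compounds are agonists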
T3 sequence (P55055 whole entry): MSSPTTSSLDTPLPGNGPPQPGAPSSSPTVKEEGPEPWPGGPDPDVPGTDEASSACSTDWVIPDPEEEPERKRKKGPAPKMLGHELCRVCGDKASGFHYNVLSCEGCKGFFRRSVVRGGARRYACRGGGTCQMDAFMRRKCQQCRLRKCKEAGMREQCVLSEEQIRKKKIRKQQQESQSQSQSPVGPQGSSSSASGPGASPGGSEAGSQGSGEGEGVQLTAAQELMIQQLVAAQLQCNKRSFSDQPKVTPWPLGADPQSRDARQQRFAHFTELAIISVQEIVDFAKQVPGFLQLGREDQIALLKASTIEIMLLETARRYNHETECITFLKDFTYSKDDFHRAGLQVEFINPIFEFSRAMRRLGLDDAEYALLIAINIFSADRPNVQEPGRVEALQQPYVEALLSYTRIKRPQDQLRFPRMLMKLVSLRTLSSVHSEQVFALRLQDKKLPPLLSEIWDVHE

[9] = viability loss in HEK293 cells – cell-based, plate reader, cherry-picked samples, cytotoxicity control, dose response (AID 743446); assay type: functional
[10] = luciferase reporter signal suppression in cells – H4 neuroglioma cells, luminescence, dose response (AID 1990); assay type: functional, cell-based
[11] = alpha-synuclein stem-loop luciferase translation blockers – H4 neuroglioma cells, luminescence, confirmation (AID 1988); assay type: functional, cell-based
[12] = blockers of bursicon-stimulated LGR2 cAMP reporter – cell-based, HEK293, CRE-luciferase reporter, cherry pick, set 2, dose response (AID 743343); assay type: functional;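 further: transfected cells were stimulated with diluted bursicon conditioned medium after compound addition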
[13] = target: T4, Heat shock factor protein 1 (Mus musculus, UniProt P38532); experiment: decrease of HSF1-responsive luciferase luminescence – cell-based, NIH3T3, dose retest, confirmation (AID 2382); assay type: functional;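 further: NIH3T3 fibroblasts with HSF1-driven luciferase reporter stressed by proteasome inhibitor MG132; luminescence from HSF1-driven luciferase expression after 8 hours of MG132 stress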
T4 sequence (P38532 whole entry): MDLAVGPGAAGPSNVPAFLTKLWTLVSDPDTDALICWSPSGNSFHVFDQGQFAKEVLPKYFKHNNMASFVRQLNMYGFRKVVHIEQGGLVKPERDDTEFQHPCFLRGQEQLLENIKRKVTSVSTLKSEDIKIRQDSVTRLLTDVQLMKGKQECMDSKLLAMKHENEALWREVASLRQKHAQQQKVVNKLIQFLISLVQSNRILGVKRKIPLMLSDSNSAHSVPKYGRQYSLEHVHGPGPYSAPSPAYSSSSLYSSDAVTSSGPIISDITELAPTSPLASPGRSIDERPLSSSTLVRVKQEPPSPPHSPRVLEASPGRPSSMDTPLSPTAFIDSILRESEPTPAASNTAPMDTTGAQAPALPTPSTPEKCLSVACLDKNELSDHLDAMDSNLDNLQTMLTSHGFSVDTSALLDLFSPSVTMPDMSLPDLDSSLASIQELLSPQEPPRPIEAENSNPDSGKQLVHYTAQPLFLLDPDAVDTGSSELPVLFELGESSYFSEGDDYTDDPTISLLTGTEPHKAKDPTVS

[14] = A549 cell cytotoxicity, dose response, cytotoxicity control, plate reader, cherry-pick, antagonist series (AID 743412); assay type: functional, cell-based
[15] = Luminescence Cell-Based Dose Response HTS to Identify Inhibitors of 5'UTR Stem-Loop Driven Prion Protein mRNA Translation in H4 Neuroglioblastoma Cells. [Related pubchem assays: 1827 (Project Summary), 1813 (Primary HTS)]; assay type: functional
[16] = blockade of melanocortin 4 receptor signaling – cell-based, plate reader, cherry pick, counter-screen for LGR2 antagonist project, dose response (AID 743444); assay type: functional;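 further: transfected HEK 293 cells stimulated with alpha-MSH peptide; potency of inhibitors of the alpha-MSH evoked signal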
[17] = toxicity toward HepG2 liver cells – cell-based, plate reader, cherry-pick, antagonist series, cytotoxicity control, dose response (AID 743416); assay type: functional
fMet-Leu-Phe receptor = fMet-Leu-Phe receptor (Homo sapiens, UniProt P21462); experiment: formyl peptide receptor binders – dose response (AID 519); assay type: functional
Chain of fMet-Leu-Phe receptor (P21462 whole entry): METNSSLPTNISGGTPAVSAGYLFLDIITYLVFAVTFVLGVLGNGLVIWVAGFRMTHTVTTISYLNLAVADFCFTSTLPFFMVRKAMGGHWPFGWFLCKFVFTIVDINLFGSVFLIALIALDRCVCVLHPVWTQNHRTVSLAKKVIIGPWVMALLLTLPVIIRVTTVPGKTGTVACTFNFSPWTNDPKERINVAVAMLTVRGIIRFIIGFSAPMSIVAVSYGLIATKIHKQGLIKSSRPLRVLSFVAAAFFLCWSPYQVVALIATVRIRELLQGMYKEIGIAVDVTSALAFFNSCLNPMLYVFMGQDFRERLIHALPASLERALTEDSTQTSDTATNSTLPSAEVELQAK

[18] = target: Endoplasmic reticulum aminopeptidase 1 (Homo sapiens, UniProt Q9NZ08); experiment: inhibition of human ERAP1 enzyme activity – biochemical, cherry-pick, set 2, plate reader, dose response (AID 743314)
Chain of Endoplasmic reticulum aminopeptidase 1 (Q9NZ08 whole entry): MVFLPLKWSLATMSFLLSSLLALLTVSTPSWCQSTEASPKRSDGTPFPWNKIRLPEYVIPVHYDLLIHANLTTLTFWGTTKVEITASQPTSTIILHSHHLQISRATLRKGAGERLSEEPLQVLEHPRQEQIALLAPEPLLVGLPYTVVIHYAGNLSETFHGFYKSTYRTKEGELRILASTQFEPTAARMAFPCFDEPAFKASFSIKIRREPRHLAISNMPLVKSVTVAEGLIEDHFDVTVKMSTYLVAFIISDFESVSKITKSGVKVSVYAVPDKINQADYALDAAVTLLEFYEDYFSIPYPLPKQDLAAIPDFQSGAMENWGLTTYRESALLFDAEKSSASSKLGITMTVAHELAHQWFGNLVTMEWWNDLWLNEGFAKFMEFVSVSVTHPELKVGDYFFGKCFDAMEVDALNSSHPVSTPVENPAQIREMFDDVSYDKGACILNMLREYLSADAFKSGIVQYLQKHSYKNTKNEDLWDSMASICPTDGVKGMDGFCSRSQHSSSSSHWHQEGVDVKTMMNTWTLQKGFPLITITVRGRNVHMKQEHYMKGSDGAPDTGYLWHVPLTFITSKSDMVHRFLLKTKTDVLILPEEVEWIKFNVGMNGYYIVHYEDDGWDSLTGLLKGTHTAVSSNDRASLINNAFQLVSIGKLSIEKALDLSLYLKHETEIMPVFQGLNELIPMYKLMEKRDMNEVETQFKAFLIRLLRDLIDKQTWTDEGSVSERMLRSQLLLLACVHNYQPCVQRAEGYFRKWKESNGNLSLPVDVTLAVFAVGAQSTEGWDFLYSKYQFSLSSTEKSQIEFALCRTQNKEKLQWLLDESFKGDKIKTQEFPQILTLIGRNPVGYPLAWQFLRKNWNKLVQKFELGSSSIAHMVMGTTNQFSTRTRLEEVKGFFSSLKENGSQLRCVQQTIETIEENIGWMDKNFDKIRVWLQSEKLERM

Protein RecA = target: T5, Protein RecA (Mycobacterium tuberculosis, UniProt P9WHJ3); experiment: Fluorescence Cell-Free Homogeneous Dose Retest to Identify Inhibitors of RecA-Intein Splicing Activity. [Related pubchem assays (depositor defined):AID2097, AID2223, AID489010, AID492950]; assay type: functional
T5 sequence (P9WHJ3 whole entry): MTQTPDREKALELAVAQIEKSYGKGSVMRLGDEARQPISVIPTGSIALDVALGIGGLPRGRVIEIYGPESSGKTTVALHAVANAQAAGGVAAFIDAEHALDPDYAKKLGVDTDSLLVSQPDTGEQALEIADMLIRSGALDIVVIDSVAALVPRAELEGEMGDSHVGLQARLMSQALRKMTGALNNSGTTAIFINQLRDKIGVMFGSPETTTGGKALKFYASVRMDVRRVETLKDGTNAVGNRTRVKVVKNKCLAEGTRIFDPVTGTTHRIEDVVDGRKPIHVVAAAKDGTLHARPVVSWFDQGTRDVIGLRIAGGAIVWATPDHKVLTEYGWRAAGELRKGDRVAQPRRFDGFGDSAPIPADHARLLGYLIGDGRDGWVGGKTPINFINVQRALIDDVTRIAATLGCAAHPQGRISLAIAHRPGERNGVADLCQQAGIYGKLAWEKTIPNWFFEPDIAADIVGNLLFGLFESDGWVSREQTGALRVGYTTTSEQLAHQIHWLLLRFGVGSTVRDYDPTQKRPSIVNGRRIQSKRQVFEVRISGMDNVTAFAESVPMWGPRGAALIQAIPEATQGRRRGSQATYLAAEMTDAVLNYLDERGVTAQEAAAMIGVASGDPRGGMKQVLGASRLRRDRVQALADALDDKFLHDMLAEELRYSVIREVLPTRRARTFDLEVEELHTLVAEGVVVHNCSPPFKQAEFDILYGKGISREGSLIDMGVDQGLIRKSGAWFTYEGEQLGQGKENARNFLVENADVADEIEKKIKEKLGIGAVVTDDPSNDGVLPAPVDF

[19] = general cell-killing toxicity readout – plate reader, dry powder samples, cytotoxicity control for PAX8 inhibitor project, dose response (AID 743021); assay type: functional, cell-based
[20] = Trypanosoma cruzi growth suppression in host cells – NIH3T3 host cells, beta-gal luminescence, confirmation (AID 2044); assay type: functional, cell-based;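 further: intracellular parasites grown in NIH/3T3 mouse fibroblasts as host cells; luminescent beta-galactosidase reporter signal from transgenic T. cruzi replicating inside host cells; inhibitors lower the luminescence signal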
Paired box protein Pax-8 = Paired box protein Pax-8 (Homo sapiens, UniProt Q06710); experiment: PAX8 transcriptional activity inhibition in RMG-I – RMG-I cells, luciferase, cherry-pick, dose response (AID 687027); assay type: functional, cell-based;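 further: luciferase reporter driven by Pax8 target thyroperoxidase promoter measured by SteadyGlo luminescence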
Chain of Paired box protein Pax-8 (Q06710 whole entry): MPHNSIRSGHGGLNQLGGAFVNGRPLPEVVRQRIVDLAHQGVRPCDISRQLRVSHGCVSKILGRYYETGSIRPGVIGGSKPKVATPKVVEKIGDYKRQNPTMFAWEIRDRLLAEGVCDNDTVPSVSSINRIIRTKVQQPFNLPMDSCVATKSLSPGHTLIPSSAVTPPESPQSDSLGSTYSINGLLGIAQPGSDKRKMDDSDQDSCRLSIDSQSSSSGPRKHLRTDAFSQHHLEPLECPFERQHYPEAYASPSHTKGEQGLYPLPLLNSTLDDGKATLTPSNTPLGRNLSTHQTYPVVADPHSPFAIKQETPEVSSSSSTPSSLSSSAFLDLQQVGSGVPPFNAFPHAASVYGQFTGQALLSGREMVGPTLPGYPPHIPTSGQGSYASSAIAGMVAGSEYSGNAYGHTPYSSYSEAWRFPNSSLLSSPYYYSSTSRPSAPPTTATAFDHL

[21] = target: 5-hydroxytryptamine receptor 2A (Mus musculus, UniProt P35363); assay type: functional, cell-based;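 further: CHO-K1 cells with tagged receptor and beta-arrestin; agonist potency measured as compound-induced activation of the receptor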
Chain of 5-hydroxytryptamine receptor 2A (P35363 whole entry): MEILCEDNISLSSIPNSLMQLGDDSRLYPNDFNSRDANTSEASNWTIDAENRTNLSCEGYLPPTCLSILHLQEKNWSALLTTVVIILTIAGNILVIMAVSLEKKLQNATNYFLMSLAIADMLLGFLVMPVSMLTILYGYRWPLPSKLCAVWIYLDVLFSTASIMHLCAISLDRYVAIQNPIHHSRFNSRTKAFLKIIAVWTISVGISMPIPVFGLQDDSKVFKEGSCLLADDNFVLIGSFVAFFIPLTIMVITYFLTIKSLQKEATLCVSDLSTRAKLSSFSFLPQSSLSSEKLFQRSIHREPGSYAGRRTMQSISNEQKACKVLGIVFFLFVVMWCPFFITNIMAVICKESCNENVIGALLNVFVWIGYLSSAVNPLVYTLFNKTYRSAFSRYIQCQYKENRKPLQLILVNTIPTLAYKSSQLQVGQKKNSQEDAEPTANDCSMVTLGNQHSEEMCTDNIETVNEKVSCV

[22] = target: T6, Replicative DNA helicase DnaB (Mycobacterium tuberculosis, UniProt P9WMR3); experiment: DnaB intein splicing inhibitors, dose response, biochemical, cell-free fluorescence (AID 449749); assay type: functional
T6 sequence (P9WMR3 whole entry): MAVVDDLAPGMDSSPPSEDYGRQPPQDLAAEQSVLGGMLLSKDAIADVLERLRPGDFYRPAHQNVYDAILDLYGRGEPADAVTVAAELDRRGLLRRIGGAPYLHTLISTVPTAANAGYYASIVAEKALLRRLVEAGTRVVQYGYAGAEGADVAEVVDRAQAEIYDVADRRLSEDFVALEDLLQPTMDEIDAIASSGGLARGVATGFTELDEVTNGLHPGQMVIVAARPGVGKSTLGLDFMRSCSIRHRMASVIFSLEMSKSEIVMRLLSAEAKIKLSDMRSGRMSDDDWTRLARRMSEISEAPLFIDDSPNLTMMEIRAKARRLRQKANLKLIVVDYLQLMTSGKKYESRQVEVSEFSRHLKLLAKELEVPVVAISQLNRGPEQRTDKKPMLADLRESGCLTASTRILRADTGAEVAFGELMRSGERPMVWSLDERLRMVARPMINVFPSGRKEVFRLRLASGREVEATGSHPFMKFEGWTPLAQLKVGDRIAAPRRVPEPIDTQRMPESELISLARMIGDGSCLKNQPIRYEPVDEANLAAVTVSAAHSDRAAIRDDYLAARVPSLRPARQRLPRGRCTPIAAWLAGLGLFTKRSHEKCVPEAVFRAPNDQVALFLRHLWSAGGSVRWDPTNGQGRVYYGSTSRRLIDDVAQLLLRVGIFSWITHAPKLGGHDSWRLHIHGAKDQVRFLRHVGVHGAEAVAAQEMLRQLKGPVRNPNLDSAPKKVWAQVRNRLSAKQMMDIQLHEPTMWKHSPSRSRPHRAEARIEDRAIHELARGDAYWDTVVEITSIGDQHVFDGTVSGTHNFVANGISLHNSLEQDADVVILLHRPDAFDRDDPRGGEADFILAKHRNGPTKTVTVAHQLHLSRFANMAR

[23] = target: Induced myeloid leukemia cell differentiation protein Mcl-1 (Homo sapiens, UniProt Q07820); assay type: functional
Chain of Induced myeloid leukemia cell differentiation protein Mcl-1 (Q07820 whole entry): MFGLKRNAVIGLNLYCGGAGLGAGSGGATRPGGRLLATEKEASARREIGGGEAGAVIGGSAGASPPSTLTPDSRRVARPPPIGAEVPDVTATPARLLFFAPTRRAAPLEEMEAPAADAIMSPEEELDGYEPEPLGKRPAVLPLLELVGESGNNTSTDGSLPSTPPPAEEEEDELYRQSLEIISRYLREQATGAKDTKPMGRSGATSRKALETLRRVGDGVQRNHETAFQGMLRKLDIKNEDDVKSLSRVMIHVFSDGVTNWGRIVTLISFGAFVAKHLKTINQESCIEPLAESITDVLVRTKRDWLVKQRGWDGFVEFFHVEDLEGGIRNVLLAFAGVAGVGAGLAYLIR

Mu-type opioid receptor = Mu-type opioid receptor (Homo sapiens, UniProt P35372); assay type: functional, cell-based;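 further: U2OS cells with beta-arrestin recruitment to OPRM1 by beta-gal complementation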
Chain of Mu-type opioid receptor (P35372 whole entry): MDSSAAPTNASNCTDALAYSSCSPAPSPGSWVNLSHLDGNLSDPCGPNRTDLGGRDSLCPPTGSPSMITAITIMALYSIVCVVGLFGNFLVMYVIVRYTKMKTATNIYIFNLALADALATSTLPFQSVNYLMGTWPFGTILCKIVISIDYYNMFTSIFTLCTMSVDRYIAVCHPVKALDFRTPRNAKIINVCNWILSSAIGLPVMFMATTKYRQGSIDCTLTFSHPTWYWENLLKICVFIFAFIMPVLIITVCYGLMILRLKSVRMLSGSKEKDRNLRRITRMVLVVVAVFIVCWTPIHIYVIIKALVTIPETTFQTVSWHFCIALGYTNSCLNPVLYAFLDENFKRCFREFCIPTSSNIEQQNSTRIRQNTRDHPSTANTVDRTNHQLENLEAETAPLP

NC(=O)[C@H]1CC2(CC(c3cccc(NC(=O)COc4ccc(Cl)cc4)c3)=NO2)CN1C(=O)Cc1ccc([N+](=O)[O-])cc1 (some centres undefined)
IC50 [1]: 5.32 µM (active)

O=C(NNC(=O)c1cc(-c2ccc(Cl)cc2)nc2ccccc12)c1csc(N2CCOCC2)n1
EC50 (Streptococcus): 76.8 µM (active) | EC50 [2]: 20 µM (active) | IC50 [3]: 20.8 µM (active) | EC50 [4]: > 150 µM (inactive) | IC50 [5]: > 69.5 µM (inactive) | IC50 [6]: 58 µM (active) | EC50 [7]: 0.775 µM (active) | EC50 (Streptokinase A): > 150 µM (not active)

Cc1cccc(/C=C\c2nc(O)c3ccccc3n2)c1
EC50 [8]: > 67.5 µM (inactive)

c1c2c(cc3sc(N4CCCCC4)nc13)OCCO2
AC50 [9]: 13.6 µM (active) | EC50 [10]: > 120 µM (not active) | EC50 [11]: 8.83 µM (active) | AC50 [12]: 1.58 µM (active) | EC50 [13]: 11.5 µM (active) | AC50 [14]: 32.9 µM (active) | EC50 [15]: 8.9 µM (active) | AC50 [16]: 1.97 µM (active) | AC50 [17]: 30.7 µM (active)

CCOC(=O)c1csc(-c2sccc2Br)n1
EC50 [8]: > 67.6 µM (inactive)

COc1ccc(Cl)cc1-n1c(=S)sc2c(O)nc(SCC(=O)NCC3CCCO3)nc21 (centres undefined)
Ki (fMet-Leu-Phe receptor): 9.3 µM (active)

COCC(=O)N1[C@@H]2Cn3c(ccc(/C=C/c4ccccc4)c3=O)[C@H]1[C@@H](C(=O)N1CCOCC1)[C@@H]2CO
AC50 [18]: 6.74 µM (active)

O=C(NCCc1ccncc1)[C@H]1N[C@H]2c3ccc(/C=C/c4ccccc4)c(=O)n3C[C@H]2[C@@H]1CO
AC50 [18]: 14.1 µM (active)

Cc1cc(N/N=C/c2ccc(O)c(C)c2O)nc(-c2ccccc2O)n1
EC50 (Streptococcus): 8.71 µM (active) | EC50 (Protein RecA): > 380 µM (inconclusive) | AC50 [19]: 14.1 µM (active) | EC50 [10]: > 60 µM (not active) | EC50 [2]: 4.48 µM (active) | EC50 [11]: > 120 µM (not active) | EC50 [20]: 1.1 µM (active) | AC50 (Paired box protein Pax-8): 4.54 µM (active) | EC50 [21]: 7.6 µM (active) | AC50 [22]: > 380 µM (inactive) | EC50 [13]: 3.71 µM (active) | IC50 [23]: 3.3 µM (active) | EC50 [15]: 13.1 µM (active) | EC50 (Streptokinase A): > 150 µM (not active) | EC50 (Mu-type opioid receptor): 92.5 µM (inactive)

CC1(C)S[C@@H]2[C@H](NC(=O)C(C(=O)O)c3ccccc3)C(=O)N2[C@H]1C(=O)O (some centres undefined) [CARBENICILLIN DISODIUM]
Ki (fMet-Leu-Phe receptor): > 66.7 µM (inactive)
